Results: patent US20130071897A1, “METHOD FOR CONTROLLING UNDESIRABLE BYPRODUCTS FORMATION CAUSED BY CONTAMINATING ORGANISMS IN THE PRODUCTION OF ETHANOL FROM SYNGAS” (COSKATA, INC., priority 2011, published 2013)
Values joined by “and” are separate entries in the source; they are usually repeats but may differ in a detail not shown here. Equal values may be shown once.

Assays:
acyl-CoA dehydrogenases = assay: In vitro acyl-CoA dehydrogenase ferrocenium assay with C. tyrobutyricum cell-free extract; type: biochemical; conditions: 0.5 to 10 mM compound; rate of ferrocenium reduction at 300 nm
Experimental: Lehman, et al., in An Acyl-Coenzyme A Dehydrogenase Assay Utilizing the Ferricenium Ion, Analytical Biochemistry 186, pages 280-284 (1990), disclose an in vitro assay screening technique for acyl-CoA dehydrogenases for determining enzyme deficiencies in children. An adaptation of this technique was explored as a potential screening method for ascertaining potential butyrogen inhibitors. An aqueous assay liquor is prepared such that each 1 milliliter sample contains 50 mM of TrisHCl buffer (pH 7.6); 0.05 mM of butyryl-CoA; 5 micromoles of FAD (flavin adenine dinucleotide) and 0.4 mM of ferrocenium. Whole cells of C. tyrobutyricum are lysed and are added to the assay liquor. […] The abbreviation mM stands for millimolar. To assure metabolic consistency among the samples a master batch of C. tyrobutyricum is prepared and harvested at the early log growth stage (approximate O.D. of between about 0.5 and 0.7). The master batch fermentation broth is centrifuged and rinsed with 50 mM TrisHCl buffer (pH 7.6), centrifuged and reconstituted with 50 mM TrisHCl buffer (pH 7.6) to be 10 times more concentrated than the original master batch. Aliquots of about 0.5 milliliter are placed into cryogenic vials (about 1.8 milliliter capacity) and frozen at −80° C. until needed. When needed, a vial is placed in an anoxic Coy chamber and allowed to thaw to room temperature. Once thawed, the cells are added to a 15 mL centrifuge tube and diluted with 0.5 mL of a 2 mg/mL solution of lysozyme (purchased from Aldrich) in 50 mM Tris-HCl (final concentration of lysozyme is about 1 mg/mL). The centrifuge tube is inverted 5 times, removed from the Coy chamber and allowed to incubate at 37° C. for 30 minutes. […] The centrifuge tube is vortexed in the Coy chamber for about 30 seconds, removed from the chamber and centrifuged for 15 minutes at 4000 rpm and 4° C. The tube is returned to the chamber and the cell-free extract (supernatant) is used to prepare the above described samples. The samples are analyzed at various times by absorbance spectroscopy at 300 nm using a Thermo Scientific Evolution 300 UV/Vis spectrophotometer with a 7-cuvette carousel and Starna quartz cuvettes with a septum cap to determine the amount of reduction of ferrocenium. The sample is at laboratory temperature and is maintained under anaerobic conditions. Typically, the absorbance is measured over a period of about 10 to 20 minutes which is sufficient time for the absorbance to stop changing. A linear slope of the rate of change in absorbance during the period that the absorbance is changing is determined using Microsoft Excel® 2010 linear regression to generate a straight line from the data points. The more gradual the slope, the better inhibition because the enzyme is slower at reducing the ferrocenium in the assay sample. A dose-response curve is then determined for each compound by plotting the linear slope against the respective compound concentration. A linear slope is then determined for each compound using Microsoft Excel® 2010 linear regression to generate a straight line from the data points. The steeper the dose-response slope, the better the inhibition because the increased concentration of the compound causes more of a difference in enzyme activity. The dose-response slope generally has a broad standard of deviation due to experimental imprecision and slope determinations.

[1] = tested on: Clostridium tyrobutyricum; assay: Balch tube batch growth of strict butyrogen Clostridium tyrobutyricum on fructose, optical density; type: cell-based; conditions: added 21 h after inoculation
Experimental: Similar experiments were conducted to make a preliminary determination as to which of the crotonate and crotonate-like compounds would act as butyrogen retardants. For this purpose the selected compounds were tested again in a series of batch experiments to determine the growth response of butyrogens to the presence of the compound at varying concentrations. The batch experiments were all conducted by anoxically filling a 20 ml Balch tube with 5 ml of a fermentation medium having the composition given in Tables 2 and 3. The media included 0.5 v/v final concentration of a fructose substrate. For each of the crotonate concentrations tested, duplicate test tubes were prepared.
Each tube was inoculated with 0.5 ml seed culture inoculum of the strict butyrogen Clostridium tyrobutyricum. The tubes were maintained at a temperature of 37° C. Twenty one hours after the inoculation of the tube with the bacteria, the different compounds from Table 1 were added to different tubes in the amounts indicated in Table 6. This was at a time of early to mid-log phase growth for the bacteria. Each fermentation of the bacteria in the media at the different concentration of crotonate derivatives were allowed to progress and were monitored to determine the bacteria growth at selected intervals of time varying from approximately 20 hours to 54 hours. Growth at the intervals was measured by reading the optical density (OD) of the fermentation liquid. Optical density was measured as described in Example 1. The ability of a tube fermentation at a particular concentration of crotonate derivative to reach a predetermined optical density was recorded in Table 6. Table 6 indicates the presence of bacterial growth to an OD of approximately 1.8 or above with a “+”, and to an optical density in a range of 0.7 to 1.5 as a “+/−”, and indicates the failure of bacterial growth to reach an optical density of approximately 0.7 as a “−”.

C. autoethanogenum [2] = assay: Balch tube batch growth of homoacetogen C. autoethanogenum on fructose, optical density; type: cell-based; conditions: added 21 h after inoculation
Experimental: These compounds were first tested to determine their effect on a known homoacetogen. Each compound was tested in a series of batch experiments to determine the growth response of a homoacetogen to the presence of the compound at varying concentrations. The batch experiments were all conducted by anoxically filling a Balch tube with 5 ml of a fermentation medium having the composition given in Tables 2 and 3. To expedite results, these batch experiments used fructose as the growth nutrient source for bacteria. Thus, the media included a 5 g/L of fructose.
Each tube was inoculated with 0.5 ml of the same strain of C. autoethanogenum bacteria seed culture inoculum. The tubes were maintained at a temperature of 37° C. Twenty one hours after the inoculation of the tube with the bacteria, the different crotonate derivatives from Table 1 were added to different tubes in the amounts indicated in Table 4 This was at a time of early to mid-log phase growth for the bacteria. Each fermentation of the bacteria in the media at the different concentration of crotonate derivatives were allowed to progress and were monitored to determine the bacteria growth at selected intervals of time varying from approximately 20 hours to 190 hours. Growth at the intervals was measured by reading the optical density (OD) of the fermentation liquid. Optical density was measured using a Spectronic Spec 20 (Thermo Spectronic) at a wavelength of 600 nm. The OD of the Balch tube culture was measured directly in the tube using absorbance mode on the Spec 20 machine. The machine was set to zero absorbance by first measuring and adjusting the setting to zero absorbance using media only as a blank. This process was repeated at each indicated time point throughout the experiment. The ability of a tube fermentation at a particular concentration of crotonate derivative to reach a predetermined optical density was recorded in Table 4. Table 4 indicates the presence of bacterial growth to an OD of approximately 2 or above with a “+”, and to an optical density in a range of 0.5 to 1.5 as a “+/−”, and indicates the failure of bacterial growth to reach an optical density of approximately 0.5 as a “−”.

C. autoethanogenum [3] = assay: Toxicity to C. autoethanogenum by batch fermentation using syngas substrate, optical density; type: cell-based, Clostridium autoethanogenum; conditions: for O.D. Response of Various Inhibitors on C. autoethanogenum: Table 21, one value per compound; for O.D. Response to Various Inhibitors: duplicates A and B, amount not given
Experimental: In this example various crotonate-like compounds on are evaluated for toxicity to C. autoethanogenum by batch fermentation using syngas substrate. The batch fermentations are conducted by anoxically filling 100 mL serum bottles with 10 mL of media having the composition given in Tables 12 and 13. Duplicate runs are conducted for each concentration. The compounds are: • C-1 Ethyl 4,4,4-trifluoro-3-(trifluoromethyl)crotonate • C-4 4,4,4-Trifluorocrotonamide • C-9 Ethyl 4,4,4-Trifluoro-3-(amino)crotonate • C-18 3 trifluoromethyl-4-methoxybenzoate.
Each bottle is inoculated with 1.0 mL of seed culture inoculum from an active fermenter using syngas substrate and containing Clostridium autoethanogenum, which inoculum has an OD of about 4.92 (which upon a 10 times dilution provides a starting OD for the fermentation of about 0.49). The bottles are gased with syngas to about 100 kilopascals and maintained at a temperature of 37° C. The bottles are regassed with syngas every 8 to 12 hours. The syngas has the approximate composition set forth in Examples 6 to 10. Twenty four hours after inoculation of the bottles with the bacteria, the compounds are added to different bottles as a solution in 50 μL of N-methylpyrrolidone in the amounts indicated in Tables 20 and 21. The fermentation process is allowed to progress at 37° C. At selected intervals of time, bacterial growth is measured by reading the OD of the fermentation liquid using a Thermo Spectronic Genesys 20 spectrophotometer. Optical density is measured by anoxically removing an aliquot of fermentation liquid and adding it to a disposable cuvette. OD's ranging between 0.01 and 0.4 are measured using fermentation liquid directly, while OD's greater than 0.4 are measure after performing a 1/10 dilution with water.

[4] = 0 Hours, added 24 h after inoculation
[5] = 2.5 Hours, added 24 h after inoculation
[6] = 6.5 Hours, added 24 h after inoculation
[7] = 24.5 Hours, added 24 h after inoculation

## C/C=C/C(=O)OC(C)(C)C [C, Tert-butyl crotonate, reference compound]
acyl-CoA dehydrogenases
  Dose-Response Slope: 6
[1]; 100 ppm(m)
  Optical density valuation of C. tyrobutyricum: + (bacterial growth to an OD of approximately 1.8 or above)
[1]; 500 ppm(m)
  Optical density valuation of C. tyrobutyricum: + (bacterial growth to an OD of approximately 1.8 or above)
[1]; 1000 ppm(m)
  Optical density valuation of C. tyrobutyricum: + (bacterial growth to an OD of approximately 1.8 or above)
C. autoethanogenum [2]; 10 ppm(m)
  Optical density valuation of C. autoethanogenum: + (bacterial growth to an OD of approximately 2 or above)
C. autoethanogenum [2]; 100 ppm(m)
  Optical density valuation of C. autoethanogenum: + (bacterial growth to an OD of approximately 2 or above)
C. autoethanogenum [2]; 500 ppm(m)
  Optical density valuation of C. autoethanogenum: + (bacterial growth to an OD of approximately 2 or above)
C. autoethanogenum [2]; 1000 ppm(m)
  Optical density valuation of C. autoethanogenum: + (bacterial growth to an OD of approximately 2 or above)
C. autoethanogenum [2]; 5000 ppm(m)
  Optical density valuation of C. autoethanogenum: + (bacterial growth to an OD of approximately 2 or above)
C. autoethanogenum [2]; 10000 ppm(m)
  Optical density valuation of C. autoethanogenum: − (failure of bacterial growth to reach an optical density of approximately 0.5)

## NC(=O)/C=C/C(F)(F)F [Compound C-4, 4,4,4-Trifluorocrotonamide]
acyl-CoA dehydrogenases
  Dose-Response Slope: 8
C. autoethanogenum [3]; [4]
  O.D. Response of Various Inhibitors on C. autoethanogenum: 0.49
  O.D. Response to Various Inhibitors: 0.49
C. autoethanogenum [3]; [5]
  O.D. Response of Various Inhibitors on C. autoethanogenum: 0.41
  O.D. Response to Various Inhibitors: 0.40 and 0.42
C. autoethanogenum [3]; [6]
  O.D. Response of Various Inhibitors on C. autoethanogenum: 0.42
  O.D. Response to Various Inhibitors: 0.4 and 0.43
C. autoethanogenum [3]; [7]
  O.D. Response of Various Inhibitors on C. autoethanogenum: 1.06
  O.D. Response to Various Inhibitors: 1.03 and 1.09
C. autoethanogenum [3]; 30.5 Hours
  O.D. Response of Various Inhibitors on C. autoethanogenum: 1.32
C. autoethanogenum [3]; 47.5 Hours
  O.D. Response of Various Inhibitors on C. autoethanogenum: 1.67
C. autoethanogenum [3]; 56 Hours
  O.D. Response of Various Inhibitors on C. autoethanogenum: 1.72
C. autoethanogenum [3]; 30.5 Hours, added 24 h after inoculation
  O.D. Response to Various Inhibitors: 1.31 and 1.33
C. autoethanogenum [3]; 47.5 Hours, added 24 h after inoculation
  O.D. Response to Various Inhibitors: 1.7 and 1.64

## CCOC(=O)/C=C/C(F)(F)F [E, ethyl 4,4,4-trifluorocrotonate]
acyl-CoA dehydrogenases
  Dose-Response Slope: 6
[1]; 100 ppm(m)
  Optical density valuation of C. tyrobutyricum: + (bacterial growth to an OD of approximately 1.8 or above)
[1]; 500 ppm(m)
  Optical density valuation of C. tyrobutyricum: + (bacterial growth to an OD of approximately 1.8 or above)
[1]; 1000 ppm(m)
  Optical density valuation of C. tyrobutyricum: + (bacterial growth to an OD of approximately 1.8 or above)
C. autoethanogenum [2]; 10 ppm(m)
  Optical density valuation of C. autoethanogenum: + (bacterial growth to an OD of approximately 2 or above)
C. autoethanogenum [2]; 100 ppm(m)
  Optical density valuation of C. autoethanogenum: + (bacterial growth to an OD of approximately 2 or above)
C. autoethanogenum [2]; 500 ppm(m)
  Optical density valuation of C. autoethanogenum: + (bacterial growth to an OD of approximately 2 or above)
C. autoethanogenum [2]; 1000 ppm(m)
  Optical density valuation of C. autoethanogenum: + (bacterial growth to an OD of approximately 2 or above)
C. autoethanogenum [2]; 5000 ppm(m)
  Optical density valuation of C. autoethanogenum: − (failure of bacterial growth to reach an optical density of approximately 0.5)
C. autoethanogenum [2]; 10000 ppm(m)
  Optical density valuation of C. autoethanogenum: − (failure of bacterial growth to reach an optical density of approximately 0.5)

## CCOC(=O)/C(C)=C/C(F)(F)F [F, ethyl-2-methyl-4,4,4-trifluorocrotonate, reference compound]
acyl-CoA dehydrogenases
  Dose-Response Slope: 2
[1]; 100 ppm(m)
  Optical density valuation of C. tyrobutyricum: + (bacterial growth to an OD of approximately 1.8 or above)
[1]; 500 ppm(m)
  Optical density valuation of C. tyrobutyricum: + (bacterial growth to an OD of approximately 1.8 or above)
[1]; 1000 ppm(m)
  Optical density valuation of C. tyrobutyricum: + (bacterial growth to an OD of approximately 1.8 or above)
C. autoethanogenum [2]; 10 ppm(m)
  Optical density valuation of C. autoethanogenum: + (bacterial growth to an OD of approximately 2 or above)
C. autoethanogenum [2]; 100 ppm(m)
  Optical density valuation of C. autoethanogenum: + (bacterial growth to an OD of approximately 2 or above)
C. autoethanogenum [2]; 500 ppm(m)
  Optical density valuation of C. autoethanogenum: + (bacterial growth to an OD of approximately 2 or above)
C. autoethanogenum [2]; 1000 ppm(m)
  Optical density valuation of C. autoethanogenum: + (bacterial growth to an OD of approximately 2 or above)
C. autoethanogenum [2]; 5000 ppm(m)
  Optical density valuation of C. autoethanogenum: +/− (to an optical density in a range of 0.5 to 1.5)
C. autoethanogenum [2]; 10000 ppm(m)
  Optical density valuation of C. autoethanogenum: − (failure of bacterial growth to reach an optical density of approximately 0.5)
